Assay results published in patent publication US20070128217A1 (priority 2003, published 2007).

Tests used:
[1] = test system: antibodies in sera from SARS patients (sera 1a, 1b, 2, 6, 37, 62, London, SARS-yellow, SARS-green); format: binding, human; parameters: Binding of serum 6 to linear peptides of protein X1 of SARS-CoV Urbani / Binding of serum 37 to linear peptides of protein X1 of SARS-CoV Urbani / Binding of serum 6 to looped/cyclic peptide (PEPSCAN-ELISA) / Binding of serum 37 to looped/cyclic peptide (PEPSCAN-ELISA) / Binding of serum 37 to looped/cyclic peptides of protein X1 of SARS-CoV Urbani / Binding of serum 6 to linear peptides of protein X2 / Binding of serum 37 to linear peptides of protein X2 / Binding of serum 37 to looped/cyclic peptides of protein X2 of SARS-CoV Urbani / Binding of serum 6 to linear peptides of protein M of SARS-CoV Urbani / Binding of serum 37 to linear peptides of protein M of SARS-CoV Urbani / Binding of serum 6 to looped/cyclic peptides of protein M of SARS-CoV Urbani / Binding of serum 37 to looped/cyclic peptides of protein M of SARS-CoV Urbani / Binding of serum 6 to linear peptides of protein X3 of SARS-CoV Urbani / Binding of serum 37 to linear peptides of protein X3 of SARS-CoV Urbani / Binding of serum 37 to looped/cyclic peptides of protein X3 of SARS-CoV Urbani / Binding of serum 6 to linear peptides of protein X4 of SARS-CoV Urbani / Binding of serum 37 to linear peptides of protein X4 of SARS-CoV Urbani / Binding of serum 37 to looped/cyclic peptides of protein X4 of SARS-CoV Urbani / Binding of serum 6 to linear peptides of protein X5 of SARS-CoV Urbani / Binding of serum 37 to linear peptides of protein X5 of SARS-CoV Urbani / Binding of serum 37 to looped/cyclic peptides of protein X5 of SARS-CoV Urbani / Binding of serum 6 to linear peptides of protein N of SARS-CoV Urbani / Binding of serum 37 to linear peptides of protein N of SARS-CoV Urbani / Binding of serum 6 to linear peptide (PEPSCAN-ELISA) / Binding of serum 1a to looped/cyclic peptides of protein N of SARS-CoV Urbani / Binding of serum 1b to looped/cyclic peptides of protein N of SARS-CoV Urbani / Binding of serum 2 to looped/cyclic peptides of protein N of SARS-CoV Urbani / Binding of serum 6 to looped/cyclic peptides of protein N of SARS-CoV Urbani / Binding of serum 37 to looped/cyclic peptides of protein N of SARS-CoV Urbani / Binding of serum 62 to looped/cyclic peptides of protein N of SARS-CoV Urbani / Binding of serum London to looped/cyclic peptides of protein N of SARS-CoV Urbani / Binding of serum SARS-green to looped/cyclic peptides of protein N of SARS-CoV Urbani: unit not given here
[2] = test system: control sera (pooled serum of ten healthy LUMC hospital workers; commercial negative donor pooled serum from the Dutch bloodbank); format: binding, human; parameters: Binding of Control serum LUMC to linear peptides / Binding of Control serum Blood-bank to linear peptides / Binding of Control serum LUMC to looped peptides / Binding of Control Serum Blood-Bank to Looped peptides / Binding of Control serum LUMC to linear peptides of the protein M of SARS-CoV Urbani / Binding of Control serum Blood-bank to linear peptides of the protein M of SARS-CoV Urbani / Binding of Control serum LUMC to looped peptides of the protein M of SARS-CoV Urbani / Binding of Control Serum Blood-Bank to Looped peptides of the protein M of SARS-CoV Urbani: unit not given here
[3] = test system: rabbit serum obtained by immunizing a rabbit with the SARS-CoV strain Frankfurt 1; format: binding; parameters: Binding of a rabbit serum to linear peptides / Binding of a rabbit serum to looped peptides / Rabbit serum linear peptides / Rabbit serum looped peptides / Binding of a rabbit serum to linear peptides of protein N of SARS-CoV Urbani (Rabbit serum linear peptides) / Binding of a rabbit serum to looped/cyclic peptides of protein N of SARS-CoV Urbani (Rabbit serum looped peptides): unit not given here

Sequence | Binding of serum 1a to looped/cyclic peptides of protein X2 of SARS-CoV Urbani [1] | Binding of serum 1b to looped/cyclic peptides of protein X2 of SARS-CoV Urbani [1] | Binding of serum 2 to looped/cyclic peptides of protein X2 of SARS-CoV Urbani [1] | Binding of serum 6 to looped/cyclic peptides of protein X2 of SARS-CoV Urbani [1] | Binding of serum 37 to looped/cyclic peptides of protein X2 of SARS-CoV Urbani [1] | Binding of serum 62 to looped/cyclic peptides of protein X2 of SARS-CoV Urbani [1] | Binding of serum London to looped/cyclic peptides of protein X2 of SARS-CoV Urbani [1] | Binding of serum SARS-green to looped/cyclic peptides of protein X2 of SARS-CoV Urbani [1] | Binding of serum SARS-yellow to looped/cyclic peptides of protein X2 of SARS-CoV Urbani [1] | Binding of Control Serum Blood-Bank to Looped peptides [2] | Binding of Control serum Blood-bank to linear peptides [2] | Binding of Control serum LUMC to linear peptides [2] | Binding of Control serum LUMC to looped peptides [2] | Binding of a rabbit serum to linear peptides [3] | Binding of a rabbit serum to looped peptides [3] | Recognition of the peptide by sera of SARS-CoV infected individuals, and form (linear, looped/cyclic) in which it is recognized [1] | Rabbit serum linear peptides [3] | Rabbit serum looped peptides [3] | also measured
RMCKYTQSTALQELL | 0.7 | 0.7 | 0.4 | 0.3 | 0.4 | 0.7 | 0.2 | 0.6 | 0.3 | 0.7 | 0.8 | 0.7 | 0.6 | 0.4 | 0.4 | – | – | – | Binding of serum 1a to linear peptides of protein X2 [1]: 0.8; Binding of serum 1b to linear peptides of protein X2 [1]: 0.7; Binding of serum 2 to linear peptides of protein X2 [1]: 0.5; Binding of serum 6 to linear peptides of protein X2 [1]: 0.4; Binding of serum 37 to linear peptides of protein X2 [1]: 0.7; Binding of serum 62 to linear peptides of protein X2 [1]: 0.8; Binding of serum London to linear peptides of protein X2 [1]: 0.5; Binding of serum SARS-green to linear peptides of protein X2 [1]: 0.6; Binding of serum SARS-yellow to linear peptides of protein X2 [1]: 0.6
RPLMESELVIGAVII | – | – | – | – | – | – | – | – | – | – | – | – | – | – | – | recognized in looped/cyclic form | 0.4 | 0.2 | Binding of serum 1a to linear peptides of protein M of SARS-CoV Urbani [1]: 0.8; Binding of serum 1b to linear peptides of protein M of SARS-CoV Urbani [1]: 0.6; Binding of serum 2 to linear peptides of protein M of SARS-CoV Urbani [1]: 0.7; Binding of serum 6 to linear peptides of protein M of SARS-CoV Urbani [1]: 0.3; Binding of serum 37 to linear peptides of protein M of SARS-CoV Urbani [1]: 0.6; Binding of serum 62 to linear peptides of protein M of SARS-CoV Urbani [1]: 0.9; Binding of serum London to linear peptides of protein M of SARS-CoV Urbani [1]: 0.4; Binding of serum SARS-green to linear peptides of protein M of SARS-CoV Urbani [1]: 0.3; Binding of serum SARS-yellow to linear peptides of protein M of SARS-CoV Urbani [1]: 0.1; Binding of Control Serum Blood-Bank to Looped peptides of the protein M of SARS-CoV Urbani [2]: 0.8; Binding of Control serum Blood-bank to linear peptides of the protein M of SARS-CoV Urbani [2]: 0.6; Binding of Control serum LUMC to linear peptides of the protein M of SARS-CoV Urbani [2]: 0.5; Binding of Control serum LUMC to looped peptides of the protein M of SARS-CoV Urbani [2]: 0.8
RQEEVQQELYSPLFL | – | – | – | – | – | – | – | – | – | 0.8 | 0.7 | 0.6 | 0.9 | – | – | recognized in looped/cyclic form | 0.5 | 0.6 | Binding of serum 1a to linear peptides of protein X4 of SARS-CoV Urbani [1]: 0.8; Binding of serum 1b to linear peptides of protein X4 of SARS-CoV Urbani [1]: 0.6; Binding of serum 2 to linear peptides of protein X4 of SARS-CoV Urbani [1]: 0.5; Binding of serum 6 to linear peptides of protein X4 of SARS-CoV Urbani [1]: 0.5; Binding of serum 37 to linear peptides of protein X4 of SARS-CoV Urbani [1]: 0.8; Binding of serum 62 to linear peptides of protein X4 of SARS-CoV Urbani [1]: 0.8; Binding of serum London to linear peptides of protein X4 of SARS-CoV Urbani [1]: 0.7; Binding of serum SARS-green to linear peptides of protein X4 of SARS-CoV Urbani [1]: 0.7; Binding of serum SARS-yellow to linear peptides of protein X4 of SARS-CoV Urbani [1]: 0.7
RRLLACLCKHKKVST | 0.2 | 0.1 | 0.1 | 0.2 | 0.2 | 0.4 | 0.2 | 0.2 | 0.2 | 0.2 | 0.9 | 0.7 | 0.3 | 0.6 | 0.3 | recognized in linear form | – | – | –
RRRLLACLCKHKKVS | 0.2 | 0.1 | 0.0 | 0.1 | 0.2 | 0.3 | 0.1 | 0.1 | 0.1 | 0.3 | 0.7 | 0.6 | 0.2 | 0.5 | 0.2 | recognized in linear form | – | – | –
